Reference: BindingDB's records for doi:10.7270/Q2251GJ9 (The Scripps Research Institute Molecular Screening Center, 2007)

What follows are compounds tested against Sphingosine 1-phosphate receptor 1 (Homo sapiens, UniProt P21453) (assay: S1P1 receptor agonists, dose response, cell-based, agonist mode, 60K MLSMR set (AID 468)). Conditions: not given.
Sequence of Sphingosine 1-phosphate receptor 1 (P21453 whole entry): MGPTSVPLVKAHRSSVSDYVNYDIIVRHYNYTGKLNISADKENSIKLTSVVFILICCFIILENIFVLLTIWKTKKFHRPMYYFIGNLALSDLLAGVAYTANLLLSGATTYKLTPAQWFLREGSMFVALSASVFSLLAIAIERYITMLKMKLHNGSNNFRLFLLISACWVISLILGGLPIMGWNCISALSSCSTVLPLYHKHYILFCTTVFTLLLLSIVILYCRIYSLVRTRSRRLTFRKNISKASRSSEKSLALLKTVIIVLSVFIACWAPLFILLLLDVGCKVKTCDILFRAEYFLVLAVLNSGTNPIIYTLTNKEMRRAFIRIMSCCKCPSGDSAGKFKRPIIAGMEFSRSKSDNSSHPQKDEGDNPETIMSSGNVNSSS

SMILES	EC50
O=C(c1ccc(Cl)s1)N1CCN(c2nc3ccccc3s2)CC1 [MLS000100900]	> 30 µM
Cc1nc2ccc3nc(NC(=O)C4COc5ccccc5O4)sc3c2s1 (configuration not stated) [MLS000100909]	4.9 µM
CCc1nnc(NC(=O)C2CCCCC2)s1 [MLS000104554]	> 95 µM
CC(=O)Oc1ccc(-n2c(O)c3c(c2O)C2(C)C=CC3(C)O2)cc1 [MLS000107813]	11.8 µM
COc1ccc(NC(=O)c2cnn3c(C(F)(F)F)cc(-c4ccco4)nc23)cc1OC [MLS000109325]	> 95 µM
Cc1cc2nc(-c3ccc(NC(=O)C(C)C)cc3)oc2cc1C [MLS000109473]	3.04 µM
COc1ccc(CN=O)cc1COc1ccc(NC(C)=O)cc1 [MLS000111933]	> 95 µM
COC(=O)Cc1sc(=O)[nH]c1Nc1ccccc1 [MLS000111966]	> 95 µM
Cc1cc(C=Nn2cnnc2)c(C)n1-c1ccc(OCc2ccc(F)cc2)cc1 [MLS000112167]	0.552 µM
Cc1cc(C=Nn2cnnc2)c(C)n1-c1ccc(OCc2ccccc2F)cc1 [MLS000112180]	1.08 µM
CC(C)(C)SCCNS(=O)(=O)c1ccccc1 [MLS000112230]	> 95 µM
COc1ccc(-c2nc(-c3ccc(NC(=O)c4ccncc4)cc3)no2)cc1OC [MLS000115086]	0.946 µM
O=C(Nc1c(F)cc(F)cc1Br)c1cc(-c2ccc(O)cc2)on1 [MLS000116264]	2.37 µM
CCCc1cc(C(=O)Nc2sc(C)c(CC)c2C#N)no1 [MLS000116385]	3.73 µM
CCCc1cc(C(=O)Nc2sc3c(c2C#N)CCC3)no1 [MLS000116386]	> 95 µM
CC(C)Cc1cc(C(=O)Nc2sc3c(c2C#N)CCCC3)no1 [MLS000116410]	> 10 µM
Cc1nn(Cc2ccc(Cl)c(Cl)c2)c(C)c1NC(=O)c1cc(CC(C)C)on1 [MLS000116412]	9.16 µM
Cc1noc(C)c1S(=O)(=O)N(CC(=O)Nc1ccc2c(c1)OCO2)c1ccc(C(C)C)cc1 [MLS000117405]	> 95 µM
Cc1nc2ccccc2c2oc(C(=O)NCC3COc4ccccc4O3)cc12 (configuration not stated) [MLS000118430]	8.06 µM
COc1ccc(CNC(=O)c2cc3c(C)nc4ccccc4c3o2)c(OC)c1 [MLS000118441]	4.2 µM
Cc1csc(NC(=O)C(Cc2ccccc2)n2cccc2)n1 (configuration not stated) [MLS000119019]	2.77 µM
O=C(Nc1ncc(Br)s1)C(Cc1ccccc1)n1cccc1 (configuration not stated) [MLS000119027]	2.23 µM
CCSc1nnc(NC(=O)C(Cc2ccccc2)n2cccc2)s1 (configuration not stated) [MLS000119034]	> 30 µM
Cc1ccc(-c2csc(N3CCC(NS(=O)(=O)c4ccc5c(c4)OCCO5)CC3)n2)cc1 [N-[1-[4-(4-methylphenyl)-1,3-thiazol-2-yl]piperidin-4-yl]-2,3-dihydro-1,4-benzodioxine-6-sulfonamide]	1.65 µM

SMILES	EC50
CCC(C)c1ccc2oc(-c3ccc(NC(=O)c4nnc[nH]4)cc3)nc2c1 (configuration not stated) [N-[4-(5-sec-butyl-1,3-benzoxazol-2-yl)phenyl]-1H-1,2,4-triazole-3-carboxamide]	> 10 µM
c1ccc(CNc2ncnc3ccccc23)cc1 [N-benzylquinazolin-4-amine]	4.81 µM
Clc1ccc(CCNc2[nH]cnc3ncnc2-3)cc1 [SMR000017624]	9.86 µM
CC1Cc2ccccc2N1c1ncnc2nc[nH]c12 (configuration not stated) [SMR000017649]	3.78 µM
O=S1(=O)C=C(Sc2nc3cc(Cl)ccc3o2)c2ccccc21 [SMR000019512]	> 30 µM
CCCc1ccc(Oc2c[nH]nc2-c2ccc(O)c(C)c2O)cc1 [SMR000024172]	12.9 µM
Cc1oc(-c2ccccc2)nc1Cn1cccc1C1=NC(c2ccccc2)CO1 (configuration not stated) [SMR000026251]	0.922 µM
c1ccc2c(c1)CCN(c1ncnc3c1[nH]c1ccccc13)C2 [SMR000039631]	1.19 µM
CCC(NC(C)c1ccccc1)=C1C(=O)N(C)C(=O)N(C)C1=O (configuration not stated) [SMR000043429]	13.6 µM
Cc1ccccc1CS(=O)(=O)c1nnc([C@H](CC(C)C)NC(=O)OC(C)(C)C)o1 [SMR000044673]	7.51 µM
Cc1ccc2c(c1)[nH]c1c(N3CCN(Cc4ccccc4)CC3)ncnc12 [SMR000044826]	3.27 µM
COC(=O)CS(=O)(=O)c1nnc([C@H](Cc2ccccc2)NC(=O)OC(C)(C)C)o1 [SMR000046685]	6.99 µM
CC(C)(C)OC(=O)N[C@@H](Cc1ccccc1)c1nnc(S(=O)(=O)Cc2ccccc2)o1 [SMR000047857]	4.1 µM
CCc1cc(-c2n[nH]cc2-c2ccc3c(c2)OCO3)c(O)cc1O [SMR000060132]	6 µM
Cc1cc(C(=O)CSc2nnc(-c3cccnc3)n2-c2ccccc2F)c(C)n1C [SMR000064090]	0.817 µM
Clc1ccc(-n2nnnc2Sc2ncnc3sccc23)cc1 [SMR000066808]	6.39 µM
Cc1ccccc1OCCCCc1c(C)n[nH]c1C [SMR000103095]	6.74 µM
COc1ccccc1OCCCCCc1c(C)n[nH]c1C [SMR000103101]	9.84 µM
Cc1cccc(OCCCCc2c(C)n[nH]c2C)c1C [SMR000103133]	4.96 µM
CCn1c(-c2cccc(Cl)c2)n[nH]c1=S [SMR000104244]	> 95 µM
CC1(C)CC(=O)C(=CNc2ccc3[nH]ncc3c2)C(=O)C1 [SMR000111453]	5.07 µM
CN=C(NC#N)SCC(=O)c1ccc(Cl)cc1Cl [[2-(2,4-dichlorophenyl)-2-oxidanylidene-ethyl] N-cyano-N'-methyl-carbamimidothioate]	4.55 µM
CC(C)(C)OC(=O)N[C@@H](Cc1ccccc1)c1nnc(S(=O)(=O)Cc2cccc(F)c2)o1 [tert-butyl N-[(1S)-1-[5-[(3-fluorophenyl)methylsulfonyl]-1,3,4-oxadiazol-2-yl]-2-phenylethyl]carbamate]	8.51 µM

Same assay, conditions: inactive by the depositor's call

SMILES	EC50
CCCOc1ccc(S(=O)(=O)NCc2ccc(OC)cc2)cc1 [MLS000104592]	23.1 µM
CC(=O)Nc1ccc(S(=O)(=O)N2CCN(c3cccc(C)c3C)CC2)cc1 [MLS000115810]	15.4 µM
CSc1ccc(S(=O)(=O)Nc2ccc3c(c2)OCCO3)cc1 [MLS000115922]	13.6 µM
CC(C)Cc1cc(C(=O)Nc2cc(Br)ccc2O)no1 [MLS000116399]	20.2 µM
CCCOC(=O)c1[nH]c2c(c1C)C(=O)CC(c1cc(OC)c(OC)c(OC)c1)C2 (configuration not stated) [MLS000116504]	10.9 µM
CCC(C)OC(=O)c1[nH]c2c(c1C)C(=O)CC(c1ccc(N(C)C)cc1)C2 (configuration not stated) [MLS000116530]	18.7 µM
O=C(C1CCN(S(=O)(=O)c2cccc3cccnc23)CC1)N1CCN(c2ccc(Cl)cc2)CC1 [MLS000116819]	17.3 µM
Cc1noc(C)c1S(=O)(=O)N(CC(=O)Nc1ccc2c(c1)OCCO2)c1ccc(C(C)C)cc1 [MLS000117406]	14.2 µM
Cc1ccc(Cl)cc1N1CCN(C(=O)C2CCN(c3nnc(-n4cccc4)s3)CC2)CC1 [MLS000119702]	34.4 µM
COc1ccc(S(=O)(=O)Cc2ccc(C(=O)N3CCN(c4cccc(C)c4C)CC3)o2)cc1 [MLS000120226]	14 µM
COc1ccc(S(=O)(=O)Cc2ccc(C(=O)N3CCN(c4ccc(Cl)cc4)CC3)o2)cc1 [MLS000120227]	13.7 µM
Cc1cccc(N2CCN(C(=O)C3CCCN(S(=O)(=O)c4cccc5cccnc45)C3)CC2)c1C (configuration not stated) [MLS000120299]	16.3 µM
COc1ccc2c(c1)-c1nc(NC(=O)c3cccs3)sc1CC2 [N-(8-methoxy-4,5-dihydrobenzo[e][1,3]benzothiazol-2-yl)-2-thiophenecarboxamide]	17.3 µM
C=CCOC(=O)c1[nH]c2c(c1C)C(=O)CC(c1cc(OC)c(OC)c(OC)c1)C2 (configuration not stated) [SMR000093465]	10.7 µM
Cc1cccc(OCCCCc2c(C)n[nH]c2C)c1 [SMR000103102]	11.5 µM
